According to patent publication US10112899B2 (ViiV HEALTHCARE UK LIMITED, priority 2014, dated 2018):

System: HIV in the HTLV-1 transformed cell line MT-4
Experiment: organism not typed
Format: cell-based
Settings: MT4, 96 h, MT-4 cells; luciferase/cell titer glo readout after 96 hours; 10 point dose response

Row | SMILES | IC50 [µM]
1 | Cc1ccc(-c2c(C)c3c(c(C)c2[C@H](OC(C)(C)C)C(=O)O)CN(C(=O)NCC(F)(F)F)C3)cc1 [Example 94, (S)-2-(tert-butoxy)-2-(4,7-dimethyl-6-(p-tolyl)-2-((2,2,2-trifluoroethyl)carbamoyl)isoindolin-5-yl)acetic acid] | 0.044
2 | Cc1ccc(-c2c(C)c3c(c(C)c2[C@H](OC(C)(C)C)C(=O)O)CN(C(=O)N2CCC(Cc4ccccc4)CC2)C3)cc1 [Example 95, (S)-2-(2-(4-benzylpiperidine-1-carbonyl)-4,7-dimethyl-6-(p-tolyl)isoindolin-5-yl)-2-(tert-butoxy)acetic acid] | 0.778
3 | Cc1ccc(-c2c(C)c3c(c(C)c2[C@H](OC(C)(C)C)C(=O)O)CN(C(=O)N2CC[C@@H](F)C2)C3)cc1 [Example 96, (S)-2-(tert-butoxy)-2-(2-((R)-3-fluoropyrrolidine-1-carbonyl)-4,7-dimethyl-6-(p-tolyl)isoindolin-5-yl)acetic acid] | 0.014
4 | Cc1ccc(-c2c(C)c3c(c(C)c2[C@H](OC(C)(C)C)C(=O)O)CN(C(=O)NC(C)(C)c2ccccc2)C3)cc1 [Example 97, (S)-2-(tert-butoxy)-2-(4,7-dimethyl-2-((2-phenylpropan-2-yl)carbamoyl)-6-(p-tolyl)isoindolin-5-yl)acetic acid] | 0.144
5 | Cc1ccc(-c2c(C)c3c(c(C)c2[C@H](OC(C)(C)C)C(=O)O)CN(C(=O)N2CCC(N4CCOCC4)CC2)C3)cc1 [Example 98, (S)-2-(tert-butoxy)-2-(4,7-dimethyl-2-(4-morpholinopiperidine-1-carbonyl)-6-(p-tolyl)isoindolin-5-yl)acetic acid] | 2.3
6 | Cc1ccc(-c2c(C)c3c(c(C)c2[C@H](OC(C)(C)C)C(=O)O)CN(C(=O)N[C@@H](C)C2CCCCC2)C3)cc1 [Example 99, (S)-2-(tert-butoxy)-2-(2-(((S)-1-cyclohexylethyl)carbamoyl)-4,7-dimethyl-6-(p-tolyl)isoindolin-5-yl)acetic acid] | 0.045
7 | Cc1ccc(-c2c(C)c3c(c(C)c2[C@H](OC(C)(C)C)C(=O)O)CN(C(=O)c2cccc4c2OCCO4)C3)cc1 [Example 105, (S)-2-(tert-butoxy)-2-(2-(2,3-dihydrobenzo[b][1,4]dioxine-5-carbonyl)-4,7-dimethyl-6-(p-tolyl)isoindolin-5-yl)acetic acid] | 0.014
8 | Cc1ccc(-c2c(C)c3c(c(C)c2[C@H](OC(C)(C)C)C(=O)O)CN(C(=O)CN2CCCCC2)C3)cc1 [Example 106, (S)-2-(tert-butoxy)-2-(4,7-dimethyl-2-(2-(piperidin-1-yl)acetyl)-6-(p-tolyl)isoindolin-5-yl)acetic acid] | 0.143
9 | Cc1ccc(-c2c(C)c3c(c(C)c2[C@H](OC(C)(C)C)C(=O)O)CN(C(=O)C2CCCCC2)C3)cc1 [Example 107, (S)-2-(tert-butoxy)-2-(2-(cyclohexanecarbonyl)-4,7-dimethyl-6-(p-tolyl)isoindolin-5-yl)acetic acid] | 0.007
10 | Cc1ccc(-c2c(C)c3c(c(C)c2[C@H](OC(C)(C)C)C(=O)O)CN(C(=O)C(C)(C)C)C3)cc1 [Example 109, (S)-2-(tert-butoxy)-2-(4,7-dimethyl-2-pivaloyl-6-(p-tolyl)isoindolin-5-yl)acetic acid] | 0.036
11 | Cc1ccc(-c2c(C)c3c(c(C)c2[C@H](OC(C)(C)C)C(=O)O)CN(C(=O)CC(C)(C)C)C3)cc1 [Example 110, (S)-2-(tert-butoxy)-2-(2-(3,3-dimethylbutanoyl)-4,7-dimethyl-6-(p-tolyl)isoindolin-5-yl)acetic acid] | 0.006
12 | Cc1ccc(-c2c(C)c3c(c(C)c2[C@H](OC(C)(C)C)C(=O)O)CN(C(=O)C2CCC(F)(F)CC2)C3)cc1 [Example 111, (S)-2-(tert-butoxy)-2-(2-(4,4-difluorocyclohexanecarbonyl)-4,7-dimethyl-6-(p-tolyl)isoindolin-5-yl)acetic acid] | 0.016
